Patent publication US9610363B2, “Methods for inhibiting starvation of a cell” (PRESIDENT AND FELLOWS OF HARVARD COLLEGE, priority 2009, dated 2017)
Entries after “also recorded” stand apart in the source; their conditions may differ.

How the values were obtained:
[1] = system: cones; experiment: Quantification of cone survival in PDE-β−/− mice (cone-lacZ staining of retinal flat mounts); assay type: in vivo; settings: for cone survival after 4 weeks of treatment: PW7, insulin daily i.p. from P21, streptozotocin single i.p. injection at P21, vs uninjected control; for cone survival after 7 weeks of treatment: PW10, treatment from PW3, vs untreated
Method: (§1) Rapamycin, Streptozotocin and Insulin treatments were performed as follows. Rapamycin was diluted to 10 mg/ml in ethanol. The stock was diluted to 0.015 mg/ml in drinking water over a period of 2 weeks. A single intraperitoneal injection of 150 μl (12 mg/ml in 0.1M citric acid, ph4.5) of Streptozotocin was injected at postnatal day (P) 21. Insulin was injected intraperitoneally daily starting at P21. The concentration was increased weekly such that the first week, 10 U/kg body weight, the second 15 U/kg, the third 20 U/kg and fourth 30 U/kg body weight, were injected. In the treatment that lasted 7 weeks 30 U/kg body weight were injected for the remaining 3 weeks. Blood glucose levels were measured by collecting a drop of blood from the tail directly onto a test strip from TrueTrack smart system (CVS pharmacy). Eye bleeds were avoided due to the fact that cell survival in the retina was being assayed.
Quantification of cone survival was performed as follows. The colors of the bright light image were inverted and processed with Imaris software (Bitplane Inc) to calculate the percentage of blue surface area versus the total retinal surface area (see also FIG. 17). A minimum of 8 retinae per treatment, and for the control, were analyzed. P-values were calculated by the student's t-test.

[2] = system: HIF-1α; experiment: Immunofluorescent staining for HIF-1α in cones of PDE-β−/− mice; assay type: in vivo; settings: PDE-β−/− mice treated for 4 weeks with insulin
Method: as §1, with “Eye bleeds were avoided due to the fact that cell survival in the retina was being assayed.” left out
(§2) Whole mount and section antibody staining were performed as previously (Punzo, C. & Cepko, C. L. (2008) Dev Dyn 237, 1034-42) described with the following modifications. […] Time points analyzed for the rod and cone death kinetics (P: postnatal day; PW: postnatal week): PDE-β−/−: P10-P20 daily, PW3-10 weekly, PW 12, PW15, PW18, PW45; PDE-γ-KO: P10-P20 daily, PW3-PW10 weekly, PW15, PW25, PW45; Rho-KO: PW4-PW8 weekly, PW10, PW11, PW17, PW20, PW25, PW27, PW31, PW34, PW37, PW45, PW55, PW80; P23H: PW5, PW10, PW16, PW25, PW30, PW35, PW40, PW65, PW70, PW75, PW80, PW85.

[3] = Behavioral assays (open field and step tests) in rd1 mutant mice; assay type: in vivo, mouse; settings: infected rd1 animals
Text: FIG. 23 is a graph depicting the open field and step tests performed on the rd1 mutant mice in which the AAV vector was introduced.
This observation also confirms that outer segment shortening was due to insufficient glucose.

[4] = system: HEK 293 cells; experiment: Expression of Fbp-1, Pck-1 and Pcx from the AAV vector (PCR, Western blot in HEK 293 cells); assay type: cell-based
Method: FIGS. 22A and B depict the mRNA expression and protein expression of gluconeogenesis genes. […] Gapdh is used as a loading control and water is used as a negative control.
Two ways were used to supply cells with more glucose. One was to increase intracellular glucose levels by providing cones with the means to synthesize their own glucose. Glucose synthesis, called gluconeogenesis, is carried out primarily in the liver, and to a limited extent in kidney and muscle. One might consider that the enzymes required for glucose synthesis could be those that break down glucose, during the process of glycolysis. However, some of the steps in glycolysis are energy producing and thus to reverse them requires a different process. Three enzymes must be supplied to allow the glucose to be synthesized, utilizing pyruvate or lactate as a starting point, and utilizing ATP and GTP to go uphill energetically in the synthesis. The first energy requiring step is catalyzed by Pcx (Pcx: Pyruvate Carboxylase) and utilizes ATP. A subsequent energy requiring step is catalyzed by Pck1: Phosphoenolpyruvate carboxykinase) and requires GTP. […] The endogenous expression of Fbp1, PCk1, and Pcx and the expression Fbp1, PCk1, and Pcx in the AAV vector (“construct”) was analyzed by PCR analysis (FIG. 22A) and Western blot analysis (FIG. 22B).

[5] = system: cones; experiment: AAV2/5 gluconeogenesis vector tested in vivo in the rd1 mutant mouse, cone survival and morphology
[6] = system: p*-mTOR; experiment: Retinal explant culture, p*-mTOR staining; assay type: cell-based, mice; settings: wild type retinal explants, 4 hours culture, media with or without glucose
Method: Retinal explant cultures: The retina was dissected free from other ocular tissues in DMEM, and then incubated in conditions according to the chart in FIG. 10a. Regular DMEM was at 4.5 g/L glucose, low glucose was at 1 g/L, leucine was added at 200 μM and FCS at 10%. Incubation was performed for 4 h and the retinae were fixed and processed for antibody staining as described below.
as §2, with “modifications. Antibody staining for LAMP-2: Triton was replaced with 0.01% Saponin. Antibody staining for p*-mTOR and p*-S6: PBS was replaced by TBS in every step of the procedure.” for “modifications.”

[7] = system: photoreceptor; settings: cited from earlier work

For `CN(N=O)C(=O)N[C@H]1C(O)O[C@H](CO)[C@@H](O)[C@@H]1O` (mixture of isomers) [streptozotocin], the “cone survival after 4 weeks of treatment” value [1] was “decrease in cone survival” and the “cone survival after 7 weeks of treatment” value [1] was “no significant difference in cone survival”.

For insulin, the “upregulation of HIF-1α in cones” value [2] was “did not show the upregulation of HIF-1α; also recorded: prevented the upregulation of HIF-1α”, the “cone survival after 4 weeks of treatment” value [1] was “improved cone survival; also recorded: prolonged cone survival” and the “cone survival after 7 weeks of treatment” value [1] was “did not show any significant improvement of cone survival; also recorded: no significant difference in cone survival”.

For “CMV promotor-Pcx-IRES-Fbp1-IRES-Pck1: AAV 2/5 virus carrying Pcx, Fbp1 and Pck1 on one transcript under the CMV promoter with IRES elements”, the “vision in two behavioral assays” value [3] was “functional vision”, the “mRNA expression of Fbp-1, Pck-1 and Pcx” value ([4]; PCR analysis, Gapdh loading control) was “expresses these genes” and the “protein expression of Fbp-1, Pck-1 and Pcx” value ([4]; Western blot, transfected HEK 293 cells vs retina and HEK 293 control samples) was “upregulated”. For the same molecule, the “morphology of the cone outer segments” value [5] was “remarkably similar to that of normal cones” and the cone survival ([5]; relative to controls) was “additional cone survival relative to controls”.

With `O=C[C@H](O)[C@@H](O)[C@H](O)[C@H](O)CO` [glucose] the “dorsal p*-mTOR in cones” value [6] was “abolished in the absence of glucose; also recorded: only detected when glucose was present”.

B1: proinsulin (protein, UniProt P01326 25-110, looked up)
pro-form: FVKQHLCGSHLVEALYLVCGERGFFYTPMSRREVEDPQVAQLELGGGPGAGDLQTLALEVAQQKRGIVDQCCTSICSLYQLENYCN
modifications: pro-form
In the case of B1, the photoreceptor death ([7]; constitutive expression, rd10 mouse model of RP) is listed as “delays photoreceptor death, both of rods and cones” and the hyperglycemia ([7]; mice treated with proinsulin) is listed as “did not develop hyperglycemia”.
